One experiment has as its system grape. Particulars: Perl et al., 1996; cited from earlier work.
Experiment [1] relates to soybean cot-node explants. Description: GUS transient expression on soybean cot-node explants after 5-day co-cultivation with Agrobacterium (T-DNA delivery). In kind it is cell-based, Glycine max. The note with it: for infection after co-cultivation (experiment #9): 400 mg/l in co-cultivation media, MN0901, AGL1 and LBA4404. The source says:
For each seedling, the roots and the majority of the hypocotyl were removed approximately 3-5 mm below the cotyledonary node by cutting the hypocotyl with a scalpel (Hinchee et al., 1998). The two cotyledons were then separated by cutting vertically through the hypocotyl region resulting in two explants. The epicotyl was subsequently removed on both explants, including all primary leaves and shoot meristems, and both the axillary bud and cotyledonary node were wounded by cutting about 10 times with a scalpel blade perpendicular to the hypocotyl. After all explants in a set were wounded (about 50), they were placed in a 25×100 mm petri plate containing 50 ml co-culture suspension for 30 minutes or inoculated into the 25 ml co-cultivation/Agrobacterium suspension for 30 minutes. The explants were then cultured on an agar-solidified co-culture media (0.5%) either without the addition of a test agent (e.g., cysteine) in 15×100 mm petri plates on top a sterile Whatman®#1 filter paper; five explants per plate with adaxial side down. Five plates were stacked together and wrapped in Parafilm®M then incubated at either 22° C. or 25° C. for 5 days in the dark.
After 5 days, the explants were washed in a liquid shoot induction media (B5 salts, MSIII iron stock, 3% sucrose, 3 mM MES, and filter sterilized B5 vitamins, 1.67 mg/l BAP, 100 mg/l cefotaxime, and 500 mg/l ticarcillin; pH 5.6) to remove excess Agrobacterium. Seven to ten explants from each cysteine level were washed in liquid shoot induction medium and placed in GUS histochemical stain (Jefferson et al., 1987). These explants were scored for GUS transient expression. Five to ten explants from each group were imbedded into a single 25×100 mm petri plate with solid shoot induction media (0.8% agar and agent, e.g., 400 mg/l cysteine) containing PPT concentrations of 1.33 mg/l, 3.33 mg/l, or 5.0 mg/l for selection. The plates were then incubated in a growth chamber with a fluctuating temperature between 18° C.-30° C. under a 18 hours light/6 hours dark cycle at 90-150 μE/m^2s.
The level of infection was scored using the GUS gene as a phenotypic marker immediately after co-culture and again after 4 weeks in shoot induction media. As it can be difficult to score the explants after co-cultivation due to the variation among explants and, in some cases, a complete staining of the target tissues, 6 categories were formed to assess the success of infection: • 4) None=There were no GUS positive sectors on any of the explants; • 5) Very low=Not all explants have GUS positive sectors, however, some have discrete foci usually seen on the hypocotyl or cot-node region. • 6) Low=More than ¾ the explants have GUS positive sectors in discrete foci on the hypocotyl and the cot-node region, but the foci are not numerous (<20). • 7) Medium=More than ½ the explants have significant GUS positive sectors at the cot-node region and hypocotyl, some seen as long lines of cells or larger sectors. • 8) Good=More than ¾ the explants have significant staining at the hypocotyl, the entire cot-node region, and on the cotyledons. […] Almost all explants have regions that are completely GUS positive. To reduce bias, samples were chosen at random and the level of infection scored before noting the treatment conditions. Samples that were between two categories are marked accordingly; those samples that resembled one category more than another were marked with a capital “X” and the other with a lowercase “x”.
Wounded soybean cot-node explants prepared from the cultivar ‘Bert’ were co-cultivated with Agrobacterium on solid co-cultivation medium containing various levels of cysteine for 5 days.

Experiment [2] deals with Japonica rice meristem cultures. The note with it: individually or in combination; Enríguez-Obregón et al., 1999; cited from earlier work.
Experiment [3] deals with soybean cot-node explants. Description: GUS+ sectors, shoots and shoot primordia after 28 days (4 weeks) on shoot induction medium with PPT (stable transformation). In kind it is cell-based, Glycine max. Particulars: amended to solid co-cultivation media. The protocol: After 5 days, the explants were washed in a liquid shoot induction media (B5 salts, MSIII iron stock, 3% sucrose, 3 mM MES, and filter sterilized B5 vitamins, 1.67 mg/l BAP, 100 mg/l cefotaxime, and 500 mg/l ticarcillin; pH 5.6) to remove excess Agrobacterium. Seven to ten explants from each cysteine level were washed in liquid shoot induction medium and placed in GUS histochemical stain (Jefferson et al., 1987). These explants were scored for GUS transient expression. Five to ten explants from each group were imbedded into a single 25×100 mm petri plate with solid shoot induction media (0.8% agar and agent, e.g., 400 mg/l cysteine) containing PPT concentrations of 1.33 mg/l, 3.33 mg/l, or 5.0 mg/l for selection. The plates were then incubated in a growth chamber with a fluctuating temperature between 18° C.-30° C. under a 18 hours light/6 hours dark cycle at 90-150 μE/m^2s. The explants were removed from the chamber after 14 days and transferred to fresh shoot induction media containing herbicide selection. During the transfer, the hypocotyl was carefully removed from the developing shoot mass and imbedded into the media with the differentiating tissue flush with the media surface. The plates were placed back into the growth chamber for an additional 2 weeks. At the 4 week time point, explants without de novo shoot production were discarded. The cotyledons were then removed from the differentiating tissue by cutting at the base of the node and the callus trimmed before transferring into shoot elongation media containing MS salts (murashige and Skoog, 1962), MSIII iron stock, 3% sucrose, 3 mM MES, 0.8% agar, and filter sterilized B5 vitamins, 50 mg/l asparagine, 100 mg/l pyroglutamic acid, 1 mg/l zeatin riboside, 0.1 mg/l indole-acetic acid, 0.5 mg/l GA3, 100 mg/l cefotaxime, 500 mg/l ticarcillin, 1.3-5 mg/l PPT; pH 5.6). Also at this time, a percentage of the explants were sliced into about 10 sections and stained for both GUS positive sectors and GUS positive shoots. Every 2 weeks the explants were transferred into new shoot elongation media after removing dead plant tissue and the bottom of the explant cut to encourage shoot elongation of transformed shoots. For the 4 week data, the minimum number of transformation events was recorded. Those explants with a GUS positive sector in the differentiating tissue giving rise to shoots were recorded with the number of transformation events in bold and italicized (FIGS. 2-5). Shoot data was obtained by recording the number of fully formed shoots seen on an explant. […] To determine the effect of adding cysteine to the co-cultivation medium on stable transformation, co-cultured explants were cultured for 28 days on a shoot-inducing medium containing the herbicide, phosphinothricin (PPT). During the 28 day incubation, the explants usually form de novo callus and shoots in the cot-node region in a structure referred to as a callus/shoot pad (FIG. 9). The callus/shoot pads were sliced in approximately 5 mm sections, immersed into GUS histochemical stain, and scored for GUS^+ sectors throughout the callus/shoot pad. […] The formation of transgenic shoot primordia and sectors extending into developing shoot tissues were also scored on 28 day sections of explants co-cultivated on 0 and 400 mg/l cysteine (FIG. 10A). Only those GUS^+ shoot primordia with obvious trichomes, which are characteristic to leaf tissue, or GUS^+ sectors originating and extending into the tissue at the base of developing shoots (referred to hereafter as differentiating tissue) were scored (FIG. 1A2).

Setting [4] is: Bert, LBA4404 pTOK233, agent in solid co-cultivation media, concentrations of Table 1, 5-day incubation.
The mark [5] stands for this setting: agent added to co-cultivation medium.

Each structure is given as a SMILES string. Where two headings read alike, the source gives them in different places.

As for `O[C@H](CS)[C@H](O)CS` (racemic) [DTT, dithiothreitol], in the experiment with grape, the “plant viability after Agrobacterium-mediated transformation of grape” value was “increase plant viability”. Moreover, the “GUS+ staining after co-cultivation” value in experiment [1] (setting [4]) was “increases”. For the same compound, the “Agrobacterium-mediated T-DNA transfer/delivery into cot-node cells” value in experiment [1] (setting [5]) is listed as “increased”; in experiment [1] (agent added to co-cultivation medium, listed as dithiothreitol), “Increases”.
With `O=C1O[C@H]([C@@H](O)CO)C(O)=C1O` [Ascorbic acid], the “damage and viability of Japonica rice meristem cultures” value in experiment [2] was “decreased damage and increased viability”.
As for `Cc1cc(-c2ccc(S(=O)(=O)O)cc2)c2ccc3c(-c4ccc(S(=O)(=O)O)cc4)cc(C)nc3c2n1` [Bathocuproine disulfonic acid], in experiment [1] (setting [4]), the “GUS+ staining after co-cultivation” value is recorded as “increases”. Also, the “Agrobacterium-mediated T-DNA transfer/delivery into cot-node cells” value in experiment [1] (setting [5]) is “Increases”. For the same compound, the “GUS+ staining with metal chelator” value in experiment [1] (range from added chelator to added copper or iron) is “significantly increased”.
In the case of `O=S(=O)(O)c1ccc(-c2ccnc3c2ccc2c(-c4ccc(S(=O)(=O)O)cc4)ccnc23)cc1` [Bathophenanthroline disulfonic acid], the “GUS+ staining after co-cultivation” value in experiment [1] (setting [4]) was “increases”. Further, the “Agrobacterium-mediated T-DNA transfer/delivery into cot-node cells” value in experiment [1] (setting [5]) is on record as “Increases”.
`N[C@H](CS)C(=O)O` [D-cysteine]: the “Agrobacterium-mediated T-DNA transfer/delivery into cot-node cells” value in experiment [1] (setting [5]) is reported as “Increases”. In addition, the “GUS+ foci at the 5-day interval” value in experiment [1] (amended to solid co-cultivation media) is listed as “increase”. Moreover, the “GUS+ foci at the 28-day interval” value in experiment [3] was “increase”.
As for `N[C@@H](CCC(=O)N[C@@H](CS)C(=O)NCC(=O)O)C(=O)O` [Glutathione], the “infection after co-cultivation (experiment #9)” value in experiment [1] is “did not result in an increase in infection”. In addition, the “GUS+ staining after co-cultivation” value in experiment [1] (setting [4]) is reported as “increases”. Besides, the “Agrobacterium-mediated T-DNA transfer/delivery into cot-node cells” value in experiment [1] (setting [5]) is “Increases”.
`N[C@@H](CSSC[C@H](N)C(=O)O)C(=O)O` [L-cystine]: the “Agrobacterium-mediated T-DNA transfer/delivery into cot-node cells” value in experiment [1] (setting [5]) is recorded as “Increases”.
Take `CSCC[C@H](N)C(=O)O` [Methionine]: the “infection after co-cultivation (experiment #9)” value in experiment [1] is on record as “did not result in an increase in infection”.
In the case of `O=S([O-])([O-])=S.[Na+].[Na+]` [Na-thiosulfate, sodium thiosulfate], in experiment [1], the “Agrobacterium-mediated T-DNA transfer/delivery into cot-node cells” value is on record as “Increases” and the “GUS+ staining after co-cultivation” value is “increases”.
Take `O=[N+]([O-])[O-].[Ag+]` [silver nitrate]: the “damage and viability of Japonica rice meristem cultures” value in experiment [2] is “decreased damage and increased viability”.

These data come from patent US7696408B2, “Method to enhance Agrobacterium-mediated transformation of plants” (Regents of the University of Minnesota, priority 1999, dated 2010).
